Source: PubChem BioAssay AID1259408 (Genetic Toxicology Data Bank (GENE-TOX), 2018)
Activity calls are given as the source filed them. How the calls were made is not given here.

Test system: GENE-TOX genotoxicity assays, various organisms and cells
Assay: GENE-TOX mutagenicity studies
Conditions: for call: Assay Type: In vivo carcinogenicity studies
[1] = Species/Cell Type: Allium cepa, Assay Type: Chromosome aberrations, Assay Code: ALC+, Evaluation Type: Evaluation A (Pre-1980)

CCC[C@@H]1C[C@@H](C(=O)N[C@@H]([C@H]2O[C@H](SC)[C@H](O)[C@@H](O)[C@H]2O)[C@@H](C)O)N(C)C1
mutagenic call (Species/Cell Type: Bacillus subtilis (H17 vs M45T), Assay Type: Rec-assay, spot test, DNA effects (bacterial DNA repair), Assay Code: REXT, Evaluation Type: Evaluation A (Pre-1980)): no conclusion

COc1ccc2c3c(cccc13)C(=O)c1ccccc1-2
mutagenic call (Species/Cell Type: Salmonella typhimurium (one or more of the five standard strains: TA98, TA100, TA1535, TA1537, and TA1538), Assay Type: Histidine reverse gene mutation, Ames assay, Assay Code: SAL+*, Activation: With metabolic activation, Evaluation Type: Evaluation A (Pre-1980)): active; positive

O=P(N1C2COCC21)(N1C2COCC21)N1C2COCC21 (centres undefined)
mutagenic call (Species/Cell Type: Drosophila melanogaster, Assay Type: Sex-linked recessive lethal gene mutation, Assay Code: SRL+, Evaluation Type: Evaluation A (Pre-1980)): active; positive

CC(C)C[C@H](NC(=O)N[C@H](C(=O)N[C@@H](CCC(N)=O)C(=O)N[C@@H](C)C=O)[C@@H]1CCNC(N)=N1)C(=O)O
mutagenic call (Species/Cell Type: Human, Assay Type: Sister-chromatid exchange (SCE) in vitro, Assay Code: SC1T, Evaluation Type: Evaluation B (Post-1980)): no conclusion | mutagenic call (Species/Cell Type: Nonhuman, Assay Type: Sister-chromatid exchange (SCE) in vitro, Assay Code: SC2T, Evaluation Type: Evaluation B (Post-1980)): no conclusion

NC(=S)Nc1ccccc1
call (Species/Cell Type: Nonhuman, Assay Code: CCG-L, Evaluation Type: Evaluation A (Pre-1980)): inactive; negative

Cc1cc(O)c2c(c1)C(=O)c1cc(O)cc(O)c1C2=O
mutagenic call (Species/Cell Type: Bacillus subtilis (H17 vs M45), Assay Type: Rec-assay, spot test, DNA effects (bacterial DNA repair), Assay Code: REW-, Evaluation Type: Evaluation A (Pre-1980)): inactive; negative | mutagenic call (Species/Cell Type: Escherichia coli polA (W3119 vs P3478), Assay Type: Rec-assay, DNA effects (bacterial DNA repair), Assay Code: RE1T, Evaluation Type: Evaluation A (Pre-1980)): no conclusion

O=C(CO)c1coc(=O)c2c(O)cccc12
mutagenic call (Species/Cell Type: Bacillus subtilis (H17 vs M45), Assay Type: Rec-assay, spot test, DNA effects (bacterial DNA repair), Assay Code: REWT, Evaluation Type: Evaluation A (Pre-1980)): no conclusion

[Be]
call (Species/Cell Type: Nonhuman, Assay Code: CCG+, Evaluation Type: Evaluation A (Pre-1980)): active; positive

NC[C@@H]1OC(O[C@H]2[C@@H](O)[C@H](O[C@@H]3[C@@H](O)[C@H](N)C[C@H](N)[C@H]3O[C@H]3O[C@H](CN)[C@@H](O)[C@H](O)[C@H]3N)O[C@@H]2CO)[C@H](N)[C@@H](O)[C@@H]1O (some centres undefined)
mutagenic call (Species/Cell Type: Rat, Sex: Male, Assay Type: Sperm morphology, Assay Code: SPA+, Evaluation Type: Evaluation A (Pre-1980)): active; positive

Cc1c2ccccc2c(CCl)c2ccc3ccccc3c12
mutagenic call (Species/Cell Type: Salmonella typhimurium (one or more of the five standard strains: TA98, TA100, TA1535, TA1537, and TA1538), Assay Type: Histidine reverse gene mutation, Ames assay, Assay Code: SAL+, Evaluation Type: Evaluation A (Pre-1980)): active; positive

COc1ccc2nc3cc(Cl)ccc3c(NCCNCCCl)c2c1
mutagenic call (Species/Cell Type: Chinese hamster ovary (CHO) cells, Assay Type: Forward gene mutation at the HPRT locus, Assay Code: CHO+, Evaluation Type: Evaluation B (Post-1980)): active; positive

COC(=O)Nc1nc2ccccc2[nH]1
mutagenic call [1]: active; positive | mutagenic call (Species/Cell Type: Aspergillus nidulans, Assay Type: Aneuploidy, chromosome aberrations, Assay Code: ASN+, Evaluation Type: Evaluation A (Pre-1980)): active; positive | mutagenic call (Species/Cell Type: Aspergillus nidulans, Assay Type: Mitotic recombination, Assay Code: ASGT, Evaluation Type: Evaluation A (Pre-1980)): no conclusion | mutagenic call (Species/Cell Type: Human lymphocytes, Assay Type: Sister-chromatid exchange (SCE) in vitro, Assay Code: SCL+D, Dose Response: With dose response, Evaluation Type: Evaluation B (Post-1980)): active; positive | mutagenic call (Species/Cell Type: Human, Assay Type: Sister-chromatid exchange (SCE) in vitro, Assay Code: SC1+D, Dose Response: With dose response, Evaluation Type: Evaluation B (Post-1980)): active; positive | mutagenic call (Species/Cell Type: Mouse, Sex: Female, Assay Type: Spot test, gene mutation, Assay Code: MST+, Evaluation Type: Evaluation A (Pre-1980)): active; positive | mutagenic call (Species/Cell Type: Saccharomyces cerevisiae, Assay Type: Mitotic recombination or gene conversion, Assay Code: YEC+, Evaluation Type: Evaluation A (Pre-1980)): active; positive | mutagenic call (Species/Cell Type: Saccharomyces cerevisiae, Assay Type: Mitotic recombination or gene conversion, Assay Code: YEH+, Evaluation Type: Evaluation A (Pre-1980)): active; positive

Nc1ccc(-c2nc(NCCO)c3ccccc3n2)s1
mutagenic call (Species/Cell Type: Salmonella typhimurium (one or more of the five standard strains: TA98, TA100, TA1535, TA1537, and TA1538), Assay Type: Histidine reverse gene mutation, Ames assay, Assay Code: SALT, Evaluation Type: Evaluation A (Pre-1980)): no conclusion

O=C(O)[C@@H]1[C@H](C(=O)O)[C@H]2CC[C@@H]1O2
mutagenic call [1]: active; positive

CC(C)(C#N)Nc1nc(Cl)nc(NC2CC2)n1
mutagenic call (Species/Cell Type: Zea mays (corn), Assay Type: Gene mutation, Assay Code: ZEM-, Evaluation Type: Evaluation A (Pre-1980)): inactive; negative
